Tested on: KCL-22
Assay: cell viability (% survival relative to DMSO control, bortezomib = 0%); higher = less cytotoxic
Conditions: 100 nM; 72 h
Procedure, shortened: (§1)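 Seeding density for each of the 10 AML and 5 CML cell lines was titrated to the linear growth range. Cells went into 384-well plates pre-printed in duplicate with compounds at 1, 10, 100, 1000 or 10000 nM and were held for 72 h at 37 °C with 5% CO2. CellTiter-Glo luminescence then provided the readout. Percent survival is expressed relative to vehicle at 100% and a 10 µM positive control at 0%, averaged over duplicates.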

Going from `O=C(Oc1ccc([N+](=O)[O-])cc1)N1CCC(C(O)(c2ccc3c(c2)OCO3)c2ccc3c(c2)OCO3)CC1` [JZL184] to `O=C(CCl)N(CCCNC(=O)C(F)(F)F)c1ccc([N+](=O)[O-])cc1` [ML175], the cell viability falls from 112% to 85%.

Going from `O=C1N[C@@H]2[C@@H](O)[C@@H](O)[C@H](O)[C@@H](CO)N2C1=O` [Kifunensine] to `OCCN1C[C@H](O)[C@@H](O)[C@H](O)[C@H]1CO` [Miglitol], the cell viability falls from 102% to 96.6%.

First: CC(C)(CCCCCCCCCCC(C)(C)CC(=O)O)CC(=O)O [MEDICA 16]
Second: CCCCCCCCCCCCC/C=C/[C@@H](O)[C@H](CO)N(C)C [N,N-Dimethylsphingosine]
The cell viability of the first is higher: 107% for the first, 101% for the second.

Going from `Cc1nnc(-c2ccc(N3CCC(Oc4ccccc4C(F)(F)F)CC3)nn2)s1` [MF-438] to `CC(C)c1ccc2c(c1)c(SC(C)(C)C)c(CC(C)(C)C(=O)O)n2Cc1ccc(Cl)cc1` [MK-886], the cell viability rises from 69% to 105%.

Going from `CN(C)C(=N)NC(=N)N` [Metformin] to `CCCCCCCNC=O` [N-Heptyl-Formamide], the cell viability falls from 98.4% to 90.1%.

Work on `Cl.OC[C@H]1NC[C@H](O)[C@@H](O)[C@H]1O` [Migalastat] yielded a cell viability of 101%.

Same assay, conditions: 1000 nM; 72 h

First: O=C(Oc1ccc([N+](=O)[O-])cc1)N1CCC(C(O)(c2ccc3c(c2)OCO3)c2ccc3c(c2)OCO3)CC1 [JZL184]
Second: O=C(CCl)N(CCCNC(=O)C(F)(F)F)c1ccc([N+](=O)[O-])cc1 [ML175]
The cell viability of the first is higher: 105% for the first, 82.5% for the second.

Going from `O=C1N[C@@H]2[C@@H](O)[C@@H](O)[C@H](O)[C@@H](CO)N2C1=O` [Kifunensine] to `OCCN1C[C@H](O)[C@@H](O)[C@H](O)[C@H]1CO` [Miglitol], the cell viability rises from 89% to 95.9%.

Compared with `CC(C)(CCCCCCCCCCC(C)(C)CC(=O)O)CC(=O)O` [MEDICA 16], `CCCCCCCCCCCCC/C=C/[C@@H](O)[C@H](CO)N(C)C` [N,N-Dimethylsphingosine] is lower in cell viability: 107% for the first, 91.3% for the second.

Compared with `Cc1nnc(-c2ccc(N3CCC(Oc4ccccc4C(F)(F)F)CC3)nn2)s1` [MF-438], `CC(C)c1ccc2c(c1)c(SC(C)(C)C)c(CC(C)(C)C(=O)O)n2Cc1ccc(Cl)cc1` [MK-886] is higher in cell viability: 61.3% for the first, 89.7% for the second.

Going from `CN(C)C(=N)NC(=N)N` [Metformin] to `CCCCCCCNC=O` [N-Heptyl-Formamide], the cell viability rises from 103% to 113%.

With `Cl.OC[C@H]1NC[C@H](O)[C@@H](O)[C@H]1O` [Migalastat] the cell viability was 102%.

Same assay, conditions: 10000 nM; 72 h

Compared with `O=C(Oc1ccc([N+](=O)[O-])cc1)N1CCC(C(O)(c2ccc3c(c2)OCO3)c2ccc3c(c2)OCO3)CC1` [JZL184], `O=C(CCl)N(CCCNC(=O)C(F)(F)F)c1ccc([N+](=O)[O-])cc1` [ML175] is lower in cell viability: 92.3% for the first, -0.718% for the second.

Compared with `O=C1N[C@@H]2[C@@H](O)[C@@H](O)[C@H](O)[C@@H](CO)N2C1=O` [Kifunensine], `OCCN1C[C@H](O)[C@@H](O)[C@H](O)[C@H]1CO` [Miglitol] is higher in cell viability: 101% for the first, 106% for the second.

Compared with `CC(C)(CCCCCCCCCCC(C)(C)CC(=O)O)CC(=O)O` [MEDICA 16], `CCCCCCCCCCCCC/C=C/[C@@H](O)[C@H](CO)N(C)C` [N,N-Dimethylsphingosine] is lower in cell viability: 98.7% for the first, 1.85% for the second.

First: Cc1nnc(-c2ccc(N3CCC(Oc4ccccc4C(F)(F)F)CC3)nn2)s1 [MF-438]
Second: CC(C)c1ccc2c(c1)c(SC(C)(C)C)c(CC(C)(C)C(=O)O)n2Cc1ccc(Cl)cc1 [MK-886]
The cell viability of the first is higher: 49.5% for the first, 39.1% for the second.

Going from `CN(C)C(=N)NC(=N)N` [Metformin] to `CCCCCCCNC=O` [N-Heptyl-Formamide], the cell viability rises from 88.1% to 98.8%.

In the case of `Cl.OC[C@H]1NC[C@H](O)[C@@H](O)[C@H]1O` [Migalastat], the cell viability is reported as 100%.

Tested on: MV4-11
Assay: as above
Conditions: 1 nM; 72 h
Procedure, shortened: as §1

First: O=C(Oc1ccc([N+](=O)[O-])cc1)N1CCC(C(O)(c2ccc3c(c2)OCO3)c2ccc3c(c2)OCO3)CC1 [JZL184]
Second: O=C(CCl)N(CCCNC(=O)C(F)(F)F)c1ccc([N+](=O)[O-])cc1 [ML175]
The cell viability of the first is higher: 94.9% for the first, 93.6% for the second.

First: O=C1N[C@@H]2[C@@H](O)[C@@H](O)[C@H](O)[C@@H](CO)N2C1=O [Kifunensine]
Second: OCCN1C[C@H](O)[C@@H](O)[C@H](O)[C@H]1CO [Miglitol]
The cell viability of the first is lower: 96.4% for the first, 102% for the second.

Compared with `CC(C)(CCCCCCCCCCC(C)(C)CC(=O)O)CC(=O)O` [MEDICA 16], `CCCCCCCCCCCCC/C=C/[C@@H](O)[C@H](CO)N(C)C` [N,N-Dimethylsphingosine] is lower in cell viability: 124% for the first, 94.2% for the second.

Compared with `Cc1nnc(-c2ccc(N3CCC(Oc4ccccc4C(F)(F)F)CC3)nn2)s1` [MF-438], `CC(C)c1ccc2c(c1)c(SC(C)(C)C)c(CC(C)(C)C(=O)O)n2Cc1ccc(Cl)cc1` [MK-886] is higher in cell viability: 91% for the first, 107% for the second.

Compared with `CN(C)C(=N)NC(=N)N` [Metformin], `CCCCCCCNC=O` [N-Heptyl-Formamide] is higher in cell viability: 91.2% for the first, 106% for the second.

`Cl.OC[C@H]1NC[C@H](O)[C@@H](O)[C@H]1O` [Migalastat] gave a cell viability of 117%.

Same assay, conditions: 10 nM; 72 h

Going from `O=C(Oc1ccc([N+](=O)[O-])cc1)N1CCC(C(O)(c2ccc3c(c2)OCO3)c2ccc3c(c2)OCO3)CC1` [JZL184] to `O=C(CCl)N(CCCNC(=O)C(F)(F)F)c1ccc([N+](=O)[O-])cc1` [ML175], the cell viability falls from 95.7% to 93%.

Compared with `O=C1N[C@@H]2[C@@H](O)[C@@H](O)[C@H](O)[C@@H](CO)N2C1=O` [Kifunensine], `OCCN1C[C@H](O)[C@@H](O)[C@H](O)[C@H]1CO` [Miglitol] is higher in cell viability: 96.3% for the first, 97% for the second.

Going from `CC(C)(CCCCCCCCCCC(C)(C)CC(=O)O)CC(=O)O` [MEDICA 16] to `CCCCCCCCCCCCC/C=C/[C@@H](O)[C@H](CO)N(C)C` [N,N-Dimethylsphingosine], the cell viability falls from 105% to 102%.

`Cc1nnc(-c2ccc(N3CCC(Oc4ccccc4C(F)(F)F)CC3)nn2)s1` [MF-438] and `CC(C)c1ccc2c(c1)c(SC(C)(C)C)c(CC(C)(C)C(=O)O)n2Cc1ccc(Cl)cc1` [MK-886] are the same in cell viability: 109% for the first, 109% for the second.

Compared with `CN(C)C(=N)NC(=N)N` [Metformin], `CCCCCCCNC=O` [N-Heptyl-Formamide] is higher in cell viability: 79.7% for the first, 105% for the second.

Work on `Cl.OC[C@H]1NC[C@H](O)[C@@H](O)[C@H]1O` [Migalastat] yielded a cell viability of 95.7%.

Same assay, conditions: 100 nM; 72 h

First: O=C(Oc1ccc([N+](=O)[O-])cc1)N1CCC(C(O)(c2ccc3c(c2)OCO3)c2ccc3c(c2)OCO3)CC1 [JZL184]
Second: O=C(CCl)N(CCCNC(=O)C(F)(F)F)c1ccc([N+](=O)[O-])cc1 [ML175]
The cell viability of the first is higher: 98.9% for the first, 95.6% for the second.

First: O=C1N[C@@H]2[C@@H](O)[C@@H](O)[C@H](O)[C@@H](CO)N2C1=O [Kifunensine]
Second: OCCN1C[C@H](O)[C@@H](O)[C@H](O)[C@H]1CO [Miglitol]
The cell viability of the first is higher: 103% for the first, 90.4% for the second.

Compared with `CC(C)(CCCCCCCCCCC(C)(C)CC(=O)O)CC(=O)O` [MEDICA 16], `CC(C)c1ccc2c(c1)c(SC(C)(C)C)c(CC(C)(C)C(=O)O)n2Cc1ccc(Cl)cc1` [MK-886] is higher in cell viability: 94% for the first, 96.9% for the second.

Going from `Cc1nnc(-c2ccc(N3CCC(Oc4ccccc4C(F)(F)F)CC3)nn2)s1` [MF-438] to `CN(C)C(=N)NC(=N)N` [Metformin], the cell viability falls from 91.2% to 81.7%.

With `Cl.OC[C@H]1NC[C@H](O)[C@@H](O)[C@H]1O` [Migalastat] the cell viability was 100%.
